Assay results from patent US11396517B1, “Exo-aza spiro inhibitors of menin-MLL interaction” (Janssen Pharmaceutica NV, priority 2017, dated 2022).
Where two headings read alike, the source gives them in different places.

What was measured:
MV-4-11 = experiment: Proliferation assay B (spheroid assay) MV-4-11; format: cell-based, human; settings: MV-4-11 cells, confluence at day 8, absolute IC50, read-out: (3b) Spheroid assay MV-4--11 (IC50(μM)) Assay B
Experimental: 3b) Proliferation Assay B
The anti-proliferative effect of menin/MLL protein/protein interaction inhibitor test compounds was assessed in human leukemia cell lines. The cell lines MV-4-11 and MOLM14 harbor MILL translocations and express the MILL fusion proteins MLL-AF4 and MLL-AF9, respectively, as well as the wildtype protein from the second allele. […] K562 was used as a control cell line containing two MLL wildtype alleles in order to exclude compounds that display general cytotoxic effects.
MV-4-11 and MOLM14 were cultured in RPMI-1640 (Sigma Aldrich) supplemented with 10% fetal bovine serum (HyClone), 2 mM L-glutamine (Sigma Aldrich) and 50 μg/ml gentamycin (Gibco). K562 were propagated in RPMI-1640 (Sigma Aldrich) supplemented with 20% fetal bovine serum (HyClone), 2 mM L-glutamine (Sigma Aldrich) and 50 μg/ml gentamycin (Gibco).
In order to assess the anti-proliferative effects, 1,500 MV-4-11, 300 MOLM14 cells or 750 K562 cells were seeded in 200 μl media per well in 96-well round bottom, ultra-low attachment plates (Costar, catalogue number 7007). Cell seeding numbers were chosen based on growth curves to ensure linear growth throughout the experiment. Test compounds were added at different concentrations and the DMSO content was normalized to 0.3%. Cells were incubated for 8 d at 37° C. and 5% CO2. Spheroid like growth was measured in real-time by live-cell imaging (IncuCyteZOOM, Essenbio, 4× objective) acquiring images at day 8. Confluence (%) as a measure of spheroid size was determined using an integrated analysis tool.
In order to determine the effect of the test compounds over time, the confluence in each well as a measure of spheroid size, was calculated. Confluence […] at the beginning of the experiment (t=0) was used as baseline for the calculation.
Absolute IC50 values were calculated as percent change in confluence as follows:
LC=Low Control: cells treated with 1 μM of the cytotoxic agent staurosporin
HC=High Control: Mean confluence (%) (DMSO treated cells) % Effect=100−(100*(Sample−LC)/(HC−LC))
To determine the IC50 a curve is fitted to the plot of % Effect vs Log 10 compound concentration using a sigmoidal fit with a variable slope and fixing the maximum to 100% and the minimum to 0%.

menin = target: T1, menin (Homo sapiens, UniProt O00255, T541A); experiment: Menin/MLL homogenous time-resolved fluorescence (HTRF) assay; format: binding; settings: location 2; read-out: (2) location 2 Menin HTRF assay (IC50 (nM))
T1 construct: Menin (a.a. 1-610-6×his tag)
T1 sequence (O00255 with tags, fused parts or gaps T541A): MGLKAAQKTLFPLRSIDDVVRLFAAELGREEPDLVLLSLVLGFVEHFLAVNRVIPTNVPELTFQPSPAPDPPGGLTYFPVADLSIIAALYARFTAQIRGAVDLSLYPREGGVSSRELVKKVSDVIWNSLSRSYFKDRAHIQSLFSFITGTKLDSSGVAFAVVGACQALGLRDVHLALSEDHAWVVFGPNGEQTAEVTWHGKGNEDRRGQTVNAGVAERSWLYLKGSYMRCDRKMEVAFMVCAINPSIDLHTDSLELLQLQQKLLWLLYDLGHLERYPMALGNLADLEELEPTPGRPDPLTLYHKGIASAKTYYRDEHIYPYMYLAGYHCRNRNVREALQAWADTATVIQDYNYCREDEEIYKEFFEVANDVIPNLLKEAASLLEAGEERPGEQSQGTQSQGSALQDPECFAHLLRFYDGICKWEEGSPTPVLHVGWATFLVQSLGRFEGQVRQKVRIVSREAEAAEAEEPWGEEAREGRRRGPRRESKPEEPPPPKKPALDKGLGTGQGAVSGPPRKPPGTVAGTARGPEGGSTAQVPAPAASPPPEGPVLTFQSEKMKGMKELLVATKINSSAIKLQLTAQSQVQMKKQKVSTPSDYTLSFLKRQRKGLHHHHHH
In short: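 Terbium-labeled menin (aa 1-610, His-tagged; […]) preincubated 5 min with compound, then 75 nM FITC-MBM1 peptide for 15 min, ambient, Tris pH 7.5, 0.5% DMSO. HTRF 520/490 ratio; 11-point 3-fold titration; IC50 from % inhibition fit.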

MOLM14 = experiment: Proliferation assay B (spheroid assay) MOLM14; format: cell-based, human; settings: MOLM14 cells, confluence at day 8, absolute IC50, read-out: (3b) Spheroid assay MOLM14 (IC50(μM)) Assay B
In short: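 Leukemia cells grown as spheroids in ultra-low-attachment round-bottom wells with compound at 0.3% DMSO for 8 d at 37 °C. Confluence imaged at day 8 as spheroid size, normalized between DMSO and 1 μM staurosporine controls; absolute IC50 from sigmoidal fit with bounds fixed at 0 and 100%.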

| SMILES | IC50 (MV-4-11; Homo sapiens, MV4-11, 192 h) [µM] | IC50 (menin) [nM] | IC50 (MOLM14; Homo sapiens, MOLM-14, 192 h) [µM] | IC50 (MV-4-11) [µM] | IC50 (MOLM14) [µM] |
| --- | --- | --- | --- | --- | --- |
| CN1CCC(Oc2cc(NC3CC4(CCN(c5ncnc6sc(CC(F)(F)F)cc56)C4)C3)ccc2C#N)CC1 (stereo not drawn) [Compound 81] | 0.43 | 6.8 | 0.65 |  |  |
| CN1CCC(Nc2cc(NC3CC4(CCN(c5ncnc6sc(CC(F)(F)F)cc56)C4)C3)ccc2C#N)CC1 (stereo not drawn) [Compound 82] | 1.14 | 73.6 | 0.93 |  |  |
| CNC(=O)c1ccc(NC2CCC3(C2)CN(c2ncnc4sc(CC(F)(F)F)cc24)C3)cc1 (stereo not drawn) [Compound 96] | 1.02 | 43.4 | 1.09 |  |  |
| N#CCc1ccc(NC2CCC3(CCN(c4ncnc5sc(CC(F)(F)F)cc45)C3)C2)cc1F (stereo not drawn) [Compound 129] | 3.81 | 34.3 | > 3.75 |  |  |
| CC(C)(C#N)c1ccc(NC2CCC3(CCN(c4ncnc5sc(CC(F)(F)F)cc45)C3)C2)cc1 (stereo not drawn) [Compound 130] | > 3.75 | 67.1 | > 3.75 |  |  |
| N#CC1(c2ccc(NC3CCC4(CCN(c5ncnc6sc(CC(F)(F)F)cc56)C4)C3)cc2)CC1 (stereo not drawn) [Compound 131] | 3.3 | 49.1 | > 3.75 |  |  |
| CNC(=O)c1ccc(NC2CCC3(CCN(c4ncnc5sc(CC(F)(F)F)cc45)C3)C2)cc1 (stereo not drawn) [Compound 133] | 1.41 | 4.1 | > 3.75 |  |  |
| FC(F)(F)Cc1cc2c(N3CCC4(CC(Nc5ccccn5)C4)C3)ncnc2s1 (stereo not drawn) [Compound 151] | 2.03 | 31 | 2.48 |  |  |
| FC(F)(F)Cc1cc2c(N3CCC4(CC(Nc5ccncc5)C4)C3)ncnc2s1 (stereo not drawn) [Compound 154] |  | 13 |  | 0.67 | 2.35 |
| FC(F)(F)Cc1cc2c(N3CC4(CCC(NC5(c6ccccc6)CC5)C4)C3)ncnc2s1 (stereo not drawn) [Compound 282] | > 3.75 | 92.8 | > 3.75 |  |  |
| Cc1cc2ccc(NC3CCC4(C3)CN(c3ncnc5sc(CC(F)(F)F)cc35)C4)cc2[nH]1 (stereo not drawn) [Compound 289] | > 3.75 | 42.7 | > 3.75 |  |  |
| O=c1[nH]c2ccc(NC3CCC4(C3)CN(c3ncnc5sc(CC(F)(F)F)cc35)C4)cc2o1 (stereo not drawn) [Compound 295] | > 3.75 | 97.7 | > 3.75 |  |  |
| O=c1[nH]c2ccc(NC3CCC4(C3)CN(c3ncnc5sc(CC(F)(F)F)cc35)C4)cc2[nH]1 (stereo not drawn) [Compound 298] | > 3.75 | 54.3 | > 3.75 |  |  |
